In US8394442B2, “Process for the preparation of a flavoring concentrate, and a flavoring concentrate” (SYMRISE AG, priority 2007, dated 2013):
Like-named read-outs stand apart in the source and are kept apart here.

Tests used:
[1] = log Pow: distribution coefficient between 1-octanol and water; conditions: 1-octanol/water
Description: Log Pow*=log Pow*−x*P′(x)/log Pow Formula 2: • where log Pow is the decimal logarithm of the distribution coefficient of a substance between 1-octanol and water, • x is the resulting solvent proportion based on the total volume proportion, normalized as 1.0, and • P′(x) is the polarity parameter for the corresponding solvent for the solvent proportion x.

[2] = log Pow* calculated by Formula 2 from log Pow and the polarity parameter P′(x) of the ethanol/water mixture
[3] = solvent ethanol, proportion 10%
[4] = solvent ethanol, proportion 30%
[5] = solvent ethanol, proportion 40%
[6] = solvent ethanol, proportion 50%
[7] = solvent ethanol, proportion 60%
[8] = solvent ethanol, proportion 70%
[9] = solvent ethanol, proportion 80%
[10] = solvent ethanol, proportion 90%
[11] = solvent ethanol, proportion 100%

log Pow [1] | log Pow* (P′ 2%) [2] | log Pow* (P′ 4%) [2] | log Pow* (P′ 6%) [2] | log Pow* (P′ 8%) [2] | log Pow* (P′ 10%) [2] | log Pow* (P′ 30%) [2] | log Pow* (P′ 40%) [2] | log Pow* (P′ 50%) [2] | log Pow* (P′ 60%) [2] | log Pow* (P′ 70%) [2] | log Pow* (P′ 80%) [2] | log Pow* (P′ 90%) [2] | log Pow* (P′ 100%) [2] | log Pow* (P′ 2%) ([2]; solvent ethanol, proportion 2%) | log Pow* (P′ 4%) ([2]; solvent ethanol, proportion 4%) | log Pow* (P′ 6%) ([2]; solvent ethanol, proportion 6%) | log Pow* (P′ 8%) ([2]; solvent ethanol, proportion 8%) | log Pow* (P′ 10%) [2, 3] | log Pow* (P′ 30%) [2, 4] | Compound | other results
3.28 | 3.22 | 3.16 | 3.11 | 3.06 | 3.01 | 2.62 | 2.48 | 2.36 | 2.26 | 2.17 | 2.09 | 2.03 | 1.97 | – | – | – | – | – | – | C=CC(C)(O)CCC=C(C)C (stereo not shown) [Linalool] | –
2.12 | 2.03 | 1.94 | 1.85 | 1.77 | 1.70 | 1.10 | 0.88 | 0.69 | 0.54 | 0.40 | 0.29 | 0.18 | 0.09 | – | – | – | – | – | – | CC/C=C\CC1C(=O)CCC1CC(=O)OC (stereo not shown) [Methyl jasmonate] | –
2.30 | – | – | – | – | – | – | – | – | – | – | – | – | – | 2.21 | 2.13 | 2.05 | 1.98 | 1.91 | 1.36 | CCCCCC(=O)OC [Methylcapronate] | log Pow* (P′ 40%) [2, 5]: 1.15; log Pow* (P′ 50%) [2, 6]: 0.98; log Pow* (P′ 60%) [2, 7]: 0.84; log Pow* (P′ 70%) [2, 8]: 0.72; log Pow* (P′ 80%) [2, 9]: 0.61; log Pow* (P′ 90%) [2, 10]: 0.51; log Pow* (P′ 100%) [2, 11]: 0.43
2.83 | 2.76 | 2.69 | 2.63 | 2.57 | 2.51 | 2.06 | 1.90 | 1.76 | 1.64 | 1.54 | 1.46 | 1.38 | 1.31 | – | – | – | – | – | – | CCCSSC [Methylpropyldisulfide] | –
4.10 | – | – | – | – | – | – | – | – | – | – | – | – | – | 4.05 | 4.01 | 3.96 | 3.92 | 3.88 | 3.57 | C=C(C)[C@@H]1CCC2=CC(=O)C[C@@H](C)[C@]2(C)C1 [Nootkatone] | log Pow* (P′ 40%) [2, 5]: 3.46; log Pow* (P′ 50%) [2, 6]: 3.36; log Pow* (P′ 60%) [2, 7]: 3.28; log Pow* (P′ 70%) [2, 8]: 3.21; log Pow* (P′ 80%) [2, 9]: 3.15; log Pow* (P′ 90%) [2, 10]: 3.10; log Pow* (P′ 100%) [2, 11]: 3.05
3.03 | 2.96 | 2.90 | 2.84 | 2.79 | 2.73 | 2.31 | 2.16 | 2.03 | 1.92 | 1.83 | 1.75 | 1.67 | 1.61 | – | – | – | – | – | – | CCCCCCCC=O [Octanal] | –
3.86 | – | – | – | – | – | – | – | – | – | – | – | – | – | 3.81 | 3.76 | 3.71 | 3.67 | 3.63 | 3.30 | CC(=O)/C=C/C1C(C)=CCCC1(C)C (stereo not drawn) [alpha-ionone] | log Pow* (P′ 40%) [2, 5]: 3.18; log Pow* (P′ 50%) [2, 6]: 3.08; log Pow* (P′ 60%) [2, 7]: 2.99; log Pow* (P′ 70%) [2, 8]: 2.92; log Pow* (P′ 80%) [2, 9]: 2.85; log Pow* (P′ 90%) [2, 10]: 2.80; log Pow* (P′ 100%) [2, 11]: 2.75

Compound | log Pow [1] | log Pow* (P′ 2%) [2] | log Pow* (P′ 4%) [2] | log Pow* (P′ 6%) [2] | log Pow* (P′ 8%) [2] | log Pow* (P′ 10%) [2] | log Pow* (P′ 30%) [2] | log Pow* (P′ 40%) [2] | log Pow* (P′ 50%) [2] | log Pow* (P′ 60%) [2] | log Pow* (P′ 70%) [2] | log Pow* (P′ 80%) [2] | log Pow* (P′ 90%) [2] | log Pow* (P′ 100%) [2] | log Pow* (P′ 2%) ([2]; solvent ethanol, proportion 2%) | log Pow* (P′ 4%) ([2]; solvent ethanol, proportion 4%) | log Pow* (P′ 6%) ([2]; solvent ethanol, proportion 6%) | log Pow* (P′ 8%) ([2]; solvent ethanol, proportion 8%) | log Pow* (P′ 10%) [2, 3] | log Pow* (P′ 30%) [2, 4] | other results
CS [Methylmercaptan] | 0.65 | – | – | – | – | – | – | – | – | – | – | – | – | – | 0.34 | 0.05 | −0.22 | −0.48 | −0.73 | −2.68 | log Pow* (P′ 40%) [2, 5]: −3.40; log Pow* (P′ 50%) [2, 6]: −4.00; log Pow* (P′ 60%) [2, 7]: −4.51; log Pow* (P′ 70%) [2, 8]: −4.95; log Pow* (P′ 80%) [2, 9]: −5.33; log Pow* (P′ 90%) [2, 10]: −5.67; log Pow* (P′ 100%) [2, 11]: −5.97
